What was measured:
Del19/T790M/C797S EGFR = test: EGFR degradation HTRF assay in H1975-clone #28 (DTC) cells; format: cell-based; conditions: H1975 # 28 DTC (Del19/T790M/C797S), 16h treatment; for DC50: HTRF; for Dmax (%): maximum percentage of degradation
Summary of the method: (§1)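 Engineered H1975 lines (exogenous mutant EGFR, endogenous copies knocked out, single clones sequence-verified); 16 h compound, 37 °C/5% CO2, 0.2% DMSO; top 10 uM, 5-fold, 8 pts; lysis 1 h RT, HTRF antibodies overnight RT; 4-parameter logistic fit → DC50.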

L858R/T790M/C797S EGFR = molecular target: T1, L858R/T790M/C797S EGFR (Homo sapiens, UniProt P00533, C797S/L858R/T790M); test: EGFR degradation HTRF assay in H1975-clone #25 (LTC) cells; format: cell-based; conditions: 16h treatment; for DC50: H1975 # 25-LTC (L858R/T790M/C797S), HTRF; for Dmax: NCI-H1975, H1975 # 25-LTC (L858R/T790M/C797S), maximum percentage of degradation
T1 construct: expressed in transfected cells; host or cells: H1975 clone #25 (lentiviral over-expression, endogenous EGFR knocked out by sgRNA)
T1 sequence (P00533 25-1210 T790M/C797S/L858R): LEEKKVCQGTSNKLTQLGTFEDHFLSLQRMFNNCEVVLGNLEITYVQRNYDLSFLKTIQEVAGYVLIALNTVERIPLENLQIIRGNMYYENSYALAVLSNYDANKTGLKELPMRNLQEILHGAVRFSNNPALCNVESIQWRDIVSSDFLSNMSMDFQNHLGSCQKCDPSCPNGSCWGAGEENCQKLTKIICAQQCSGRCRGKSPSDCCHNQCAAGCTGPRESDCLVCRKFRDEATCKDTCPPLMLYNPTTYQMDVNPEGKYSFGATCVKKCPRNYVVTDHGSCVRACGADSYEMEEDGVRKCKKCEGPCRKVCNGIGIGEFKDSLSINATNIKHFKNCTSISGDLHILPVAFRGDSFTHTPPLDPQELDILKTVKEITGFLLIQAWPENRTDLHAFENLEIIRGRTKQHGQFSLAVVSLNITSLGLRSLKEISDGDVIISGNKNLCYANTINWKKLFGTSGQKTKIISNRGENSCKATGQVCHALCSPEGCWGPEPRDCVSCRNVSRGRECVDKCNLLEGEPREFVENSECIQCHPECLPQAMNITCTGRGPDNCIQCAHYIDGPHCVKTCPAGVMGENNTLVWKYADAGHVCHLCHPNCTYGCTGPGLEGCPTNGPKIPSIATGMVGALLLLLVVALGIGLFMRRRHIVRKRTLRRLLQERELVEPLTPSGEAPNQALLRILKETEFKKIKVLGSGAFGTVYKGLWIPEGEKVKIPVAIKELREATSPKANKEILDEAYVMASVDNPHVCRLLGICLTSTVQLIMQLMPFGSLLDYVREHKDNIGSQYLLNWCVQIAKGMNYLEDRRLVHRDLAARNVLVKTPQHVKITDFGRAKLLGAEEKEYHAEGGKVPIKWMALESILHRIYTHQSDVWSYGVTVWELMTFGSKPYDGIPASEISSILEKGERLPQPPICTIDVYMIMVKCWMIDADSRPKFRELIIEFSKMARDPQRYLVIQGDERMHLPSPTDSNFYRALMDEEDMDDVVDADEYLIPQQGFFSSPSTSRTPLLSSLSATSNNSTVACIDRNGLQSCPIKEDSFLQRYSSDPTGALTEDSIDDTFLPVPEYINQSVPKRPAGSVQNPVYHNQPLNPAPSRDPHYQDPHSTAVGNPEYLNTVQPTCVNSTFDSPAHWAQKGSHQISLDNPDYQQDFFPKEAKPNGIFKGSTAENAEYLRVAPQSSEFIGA
Summary of the method: as §1

| SMILES | DC50 (Del19/T790M/C797S EGFR) [nM] | Dmax (%) (Del19/T790M/C797S EGFR) | DC50 (L858R/T790M/C797S EGFR) [nM] | Dmax (L858R/T790M/C797S EGFR) [%] |
| --- | --- | --- | --- | --- |
| Cc1cc2cc(n1)-c1cnn(C)c1OCCC[C@@H](C)CN1/C(=N/C2=O)Nc2ccc(N3CCN(CC4CN(c5cc(F)c([C@H]6CCC(=O)NC6=O)c(F)c5)C4)[C@@H](C#N)C3)cc21 [Example 423, (R)-1-((1-(4-((R)-2,6-dioxopiperidin-3-yl)-3,5-difluorophenyl)azetidin-3-yl)methyl)-4-((R,E)-1^1,2^6,7-trimethyl-3-oxo-5^2,5^3-dihydro-1^1H,5^1H-1l-oxa-4-aza-5(2,1)-benzo[d]imidazola-2(2,4)-pyridina-1(4,5)-pyrazolacycloundecaphane-5^6-yl)piperazine-2-carbonitrile] | 0.655 | 67.20 | 1.41 | 78.8 |
| Cc1cc2cc(n1)-c1cnn(C)c1OCCC[C@@H](C)CN1/C(=N/C2=O)Nc2ccc(N3CCN(CCC4CCN(c5cc(F)c([C@H]6CCC(=O)NC6=O)c(F)c5)CC4)CC3=O)cc21 [Example 437, (R)-3-(2,6-difluoro-4-(4-(2-(3-oxo-4-((R,E)-1^1,2^6,7-trimethyl-3-oxo-5^2,5^3-dihydro-1^1H,5^1H-11-oxa-4-aza-5(2,1)-benzo[d]imidazola-2(2,4)-pyridina-1(4,5)-pyrazolacycloundecaphane-5^6-yl)piperazin-1-yl)ethyl)piperidin-1-yl)phenyl)piperidine-2,6-dione] | 0.534 | 88.76 | 1.01 | 91 |
| Cc1cc2cc(n1)-c1cnn(C)c1OCCC[C@@H](C)CN1/C(=N/C2=O)Nc2ccc(C(=O)N(C)[C@H]3CCN(CCc4cc(F)c([C@H]5CCC(=O)NC5=O)c(F)c4)C[C@H]3C)cc21 [Example 256, (R,E)-N-((3R,4S)-1-(4-((R)-2,6-dioxopiperidin-3-yl)-3,5-difluorophenethyl)-3-methylpiperidin-4-yl) -N,1^1,2^6,7-tetramethyl-3-oxo-5^2,5^3-dihydro-1^1H,5^1H-11-oxa-4-aza-5(2,1)-benzo[d]imidazola-2(2,4)-pyridina-1(4,5)-pyrazolacycloundecaphane-5^6-carboxamide] | 0.608 | 83.08 | 0.326 | 88.1 |
| Cc1cc2cc(n1)-c1cnn(C)c1OCCC[C@@H](C)CN1/C(=N/C2=O)Nc2ccc(N3CCN(CC4CCN(c5cc(F)c([C@H]6CCC(=O)NC6=O)c(F)c5)CC4)CC3)cc21 [Example 322, (R)-3-(2,6-difluoro-4-(4-((4-((R,E)-1^1,2^6,7-trimethyl-3-oxo-5^2,5^3-dihydro-1^1H,5^1H-11-oxa-4-aza-5(2, 1)-benzo[d]imidazola-2(2,4)-pyridina-1(4,5)-pyrazolacycloundecaphane-5^6-yl)piperazin-1-yl)methyl)piperidin-1-yl)phenyl)piperidine-2,6-dione] | 0.934 | 74.99 | 1.21 | 86.8 |
| Cc1cc2cc(n1)-c1cnn(C)c1OCCC[C@@H](C)CN1/C(=N/C2=O)Nc2ccc(CN3C[C@@H]4C[C@H]3CN4C(=O)[C@H]3CN(c4cc(F)c([C@H]5CCC(=O)NC5=O)c(F)c4)CC3(C)C)cc21 [Example 185, (R)-3-(4-((R)-3,3-dimethyl-4-((1S,4S)-5-(((R,E)-1^1,2^6,7-trimethyl-3-oxo-5^2,5^3-dihydro-1^1H,5^1H-11-oxa-4-aza-5(2,1)-benzo[d]imidazola-2(2,4)-pyridina-1(4,5)-pyrazolacycloundecaphane-5^6-yl)methyl)-2,5-diazabicyclo[2.2.1]heptane-2-carbonyl)pyrrolidin-1-yl)-2,6-difluorophenyl)piperidine-2,6-dione] | 0.752 | 60.18 | 1.04 | 87.1 |
| Cc1cc2cc(n1)-c1cnn(C)c1OCCC[C@@H](C)CN1/C(=N/C2=O)Nc2ccc(C(=O)N(C)CCCCc3cc(F)c([C@H]4CCC(=O)NC4=O)c(F)c3)cc21 [Example 339, (R,E)-N-(4-(4-((R)-2,6-dioxopiperidin-3-yl)-3,5-difluorophenyl)butyl)-N,1^1,2^6,7-tetramethyl-3-oxo-5^2,5^3-dihydro-1^1H,5^1H-11-oxa-4-aza-5(2,1)-benzo[d]imidazola-2(2,4)-pyridina-1(4,5)-pyrazolacycloundecaphane-5^6-carboxamide] | 0.671 | 70.76 | 0.865 | 80.3 |
| Cc1cc2cc(n1)-c1cnn(C)c1OCCC[C@@H](C)CN1/C(=N/C2=O)Nc2ccc(CN3CCN(CC4CN(c5cc(F)c([C@H]6CCC(=O)NC6=O)c(F)c5)C4)CC3)cc21 [Example 150, (R)-3-(2,6-difluoro-4-(3-((4-(((R,E)-1^1,2^6,7-trimethyl-3-oxo-5^2,5^1-dihydro-1^1H,5^1H-11-oxa-4-aza-5(2,1)-benzo[d]imidazola-2(2,4)-pyridina-(4,5)-pyrazolacycloundecaphane-5^6-yl)methyl)piperazin-1-yl)methyl)azetidin-1-yl)phenyl)piperidine-2,6-dione] | 2.17 | 79.66 | 0.705 | 87.9 |
| Cc1cc2cc(n1)-c1cnn(C)c1OCCC[C@@H](C)CN1/C(=N/C2=O)Nc2ccc(C(=O)N[C@@H]3CCN(CCc4cc(F)c([C@H]5CCC(=O)NC5=O)c(F)c4)[C@H](C)C3)cc21 [Example 269, (R,E)-N—((2R,4R)-1-(4-((R)-2,6-dioxopiperidin-3-yl)-3,5-difluorophenethyl)-2-methylpiperidin-4-yl)-1^1,2^6,7-trimethyl-3-oxo-5^2,5^3-dihydro-1^1H,5^1H-11-oxa-4-aza-5(2,1)-benzo[d]imidazola-2(2,4)-pyridina-1(4,5)-pyrazolacycloundecaphane-5^6-carboxamide] | 0.638 | 82.6 | 0.316 | 92.7 |
| Cc1cc2cc(n1)-c1cnn(C)c1OCCC[C@@H](C)CN1/C(=N/C2=O)Nc2ccc(CN3CCN(C(=O)[C@@H]4CCN(c5cc(F)c([C@H]6CCC(=O)NC6=O)c(F)c5)C4(C)C)C[C@@H]3C)cc21 [Example 190, (R)-3-(4-((R)-2,2-dimethyl-3-((S)-3-methyl-4-(((R,E)-1^1,2^6,7-trimethyl-3-oxo-5^2,5^3-dihydro-1^1H,5^1H -11-oxa-4-aza-5(2,1)-benzo[d]imidazola-2(2,4)-pyridina-(4,5)-pyrazolacycloundecaphane-5^6-yl)methyl)piperazine-1-carbonyl)pyrrolidin-1-yl)-2,6-difluorophenyl)piperidine-2,6-dione] | 0.742 | 64.16 | 1.17 | 82.2 |
| Cc1cc2cc(n1)-c1cnn(C)c1OCCC[C@@H](C)CN1/C(=N/C2=O)Nc2ccc(C(=O)N3CC(N(C)CCc4cc(F)c([C@H]5CCC(=O)NC5=O)c(F)c4)C3)cc21 [Example 306, (R)-3-(2,6-difluoro-4-(2-(methyl(1-((R,E)-1^1,2^6,7-trimethyl-3-oxo-5^2,5^3-dihydro-1^1H,5^1H-11-oxa-4-aza-5(2,1)-benzo[d]imidazola-2(2,4)-pyridina-1(4,5)-pyrazolacycloundecaphane-5^6-carbonyl)azetidin-3-yl)amino)ethyl)phenyl)piperidine-2,6-dione] | 0.614 | 63.09 | 0.742 | 84.3 |
| Cc1cc2cc(n1)-c1cnn(C)c1OCCC[C@@H](C)CN1/C(=N/C2=O)Nc2ccc(CN3CC4(C3)CN(C(=O)[C@@H]3CCN(c5cc(F)c([C@H]6CCC(=O)NC6=O)c(F)c5)C3)C4)cc21 [Example 78, (R)-3-(2,6-difluoro-4-((R)-3-(6-(((R,E)-1^1,2^6,7-trimethyl-3-oxo-5^2,5^3-dihydro-1^1H,5^1H-11-oxa-4-aza-5(2,1)-benzo[d]imidazola-2(2,4)-pyridina-1(4,5)-pyrazolacycloundecaphane-5^6-yl)methyl)-2,6-diazaspiro[3.3]heptane-2-carbonyl)pyrrolidin-1-yl)phenyl)piperidine-2,6-dione] | 0.7 | 82.6 | 0.5 | 90.2 |
| Cc1cc2cc(n1)-c1cnn(C)c1OCCC[C@@H](C)CN1/C(=N/C2=O)Nc2ccc(C(=O)N(C)C3CC4CCCC(C3)N4CCc3cc(F)c([C@H]4CCC(=O)NC4=O)c(F)c3)cc21 (stereo partly drawn) [Example 266, (7R,E)-N-(9-(4-((R)-2,6-dioxopiperidin-3-yl)-3,5-difluorophenethyl)-9-azabicyclo[3.3.1]nonan-3-yl) -N,1^1,2^6,7-tetramethyl-3-oxo-5^2,5^3-dihydro-1^1H,5^1H-11-oxa-4-aza-5(2,1)-benzo[d]imidazola-2(2,4)-pyridina-1(4,5)-pyrazolacycloundecaphane-5^6-carboxamide] | 0.65 | 75.93 | 1.51 | 81.4 |
| Cc1cc2cc(n1)-c1cnn(C)c1OCC[C@H]1C[C@@H]1CN1/C(=N/C2=O)Nc2ccc(NC3CN(C4CCN(c5cc(F)c([C@H]6CCC(=O)NC6=O)c(F)c5)CC4)C3)cc21 [Example 455, (R)-3-(4-(4-(3-(((71S,72R,E)-1^1,2^6-dimethyl-3-oxo-5^2,5^3-dihydro-1^1H,5^1H-10-oxa-4-aza-5(2,1)-benzo[d]imidazola-2(2,4)-pyridina-1(4,5)-pyrazola-7(1,2)-cyclopropanacyclodecaphane-5^6-yl)amino)azetidin-1-yl)piperidin-1-yl)-2,6-difluorophenyl)piperidine-2,6-dione] | 0.912 | 85.22 | 0.537 | 90.8 |

From patent US20240342292A1, “Compounds for the Degradation of EGFR Kinase” (BeiGene Switzerland GmbH, priority 2021, published 2024)
